From patent publication US12544453B2, “Amphotericin B conjugated stabilized gold nanoparticles and uses thereof” (Max-Planck-Gesellschaft zur Förderung der Wissenschaften …, priority 2019, dated 2026)
Values after ≈ are worked out from the molar mass of the structure shown. Like-named read-outs stand apart in the source and are kept apart here.

Tests used:
Assay in all cases: Antifungal susceptibility testing, broth microdilution MIC
Format in all cases: cell-based
[1] = system: Candida albicans; settings: read-out: Minimum Inhibitory Concentration (MIC)
Description: (§1) The minimum inhibitory concentrations (MICs) of fluconazole, amphotericin B, amphotericin B thiohexose or thiopentose stabilized gold nanoparticles, and of naked gold nanoparticles were determined using broth microdilution methods following the guidelines of the Clinical and Laboratory Standards Institute (Reference Method for Broth Dilution Antifungal Susceptibility Testing of Yeasts, Alexander B. D., 2017, M27-A4). Microtiter 96-well plates containing two-fold serial dilutions, at final concentrations ranging from […], of the test agents in RPMI-1640 medium (buffered with MOPS and adjusted to pH=7) were inoculated with the freshly-prepared fungal suspensions. Microtiter plates were incubated at 35° C. for 24-72 hrs according to the tested species.

[2] = system: Candida glabrata; settings: Nakaseomyces glabratus, fluconazole MIC50 (50% growth reduction), read-out: Minimum Inhibitory Concentration (MIC)
Description: as §1

[3] = system: Candida krusei; settings: Pichia kudriavzevii, read-out: Minimum Inhibitory Concentration (MIC)
Description: as §1

[4] = system: Candida auris; settings: Candidozyma auris, fluconazole MIC50 (50% growth reduction), read-out: Minimum Inhibitory Concentration (MIC)
Description: as §1

[5] = system: Cryptococcus neoformans; settings: read-out: Minimum Inhibitory Concentration (MIC)
Description: as §1

[6] = system: Candida tropicalis
Description: as §1

[7] = system: Candida parapsilosis; settings: Lodderomyces parapsilosis, read-out: Minimum Inhibitory Concentration (MIC)
Description: as §1

[8] = system: Cryptococcus gatti; settings: read-out: Minimum Inhibitory Concentration (MIC)
Description: as §1

[9] = system: Aspergillus fumigatus; settings: read-out: Minimum Inhibitory Concentration (MIC)
Description: as §1

For OC(Cn1cncn1)(Cn1cncn1)c1ccc(F)cc1F [Fluconazole], the MIC ([1]; ATCC10231, Candida albicans ATCC 10231, fluconazole MIC50 (50% growth reduction)) was 2 µg/mL (≈ 6.53 µM), the MIC ([1]; ATCC26790, Candida albicans ATCC 26790, fluconazole MIC50 (50% growth reduction)) was 1 µg/mL (≈ 3.27 µM) and the MIC ([1]; ATCC64124, Candida albicans ATCC 64124, fluconazole MIC50 (50% growth reduction)) was 128 µg/mL (≈ 418 µM). For the same molecule, the MIC ([1]; Candida albicans NR 29446, fluconazole MIC50 (50% growth reduction)) was > 128 µg/mL, the MIC ([1]; Candida albicans NR 29448, fluconazole MIC50 (50% growth reduction)) was > 128 µg/mL and the MIC ([1]; SC5314, Candida albicans SC5314, fluconazole MIC50 (50% growth reduction)) was 0.5 µg/mL (≈ 1.63 µM). It also gave an MIC ([2]; ATCC2001, Candida glabrata ATCC 2001) of 4 µg/mL (≈ 13.1 µM), an MIC ([2]; ATCC66032, Candida glabrata ATCC 66032) of 8 µg/mL (≈ 26.1 µM) and an MIC ([2]; Candida glabrata ATCC MYA-2950) of 8 µg/mL (≈ 26.1 µM). The MIC ([2]; Candida glabrata CAB 524041) was 4 µg/mL (≈ 13.1 µM), the MIC ([3]; ATCC14243) was 16 µg/mL (≈ 52.2 µM) and the MIC ([3]; ATCC34135) was 16 µg/mL (≈ 52.2 µM). For the same molecule, the MIC [3] was 16 µg/mL (≈ 52.2 µM), the MIC ([4]; Candida auris 381) was 1 µg/mL (≈ 3.27 µM) and the MIC ([4]; Candida auris 385) was > 128 µg/mL. The MIC ([4]; Candida auris 386) was > 128 µg/mL, the MIC ([4]; Candida auris 389) was > 128 µg/mL and the MIC ([4]; Candida auris 390) was > 128 µg/mL. The MIC ([5]; Cryptococcus neoformans NR-41291, fluconazole MIC50 (50% growth reduction)) was 16 µg/mL (≈ 52.2 µM), the MIC ([5]; Cryptococcus neoformans NR-41295, fluconazole MIC50 (50% growth reduction)) was 32 µg/mL (≈ 104 µM) and the MIC ([5]; Cryptococcus neoformans NR-41298, fluconazole MIC50 (50% growth reduction)) was 4 µg/mL (≈ 13.1 µM). It also gave an MIC ([5]; Cryptococcus neoformans NR-48767, fluconazole MIC50 (50% growth reduction)) of 4 µg/mL (≈ 13.1 µM), an MIC ([6]; ATCC1369, read-out: Minimum Inhibitory Concentration (MIC)) of 0.5 µg/mL (≈ 1.63 µM) and an MIC ([6]; ATCC13803, read-out: Minimum Inhibitory Concentration (MIC)) of 0.25 µg/mL (≈ 0.816 µM). The MIC ([7]; ATCC22019) was 2 µg/mL (≈ 6.53 µM), the MIC [7] was 0.5 µg/mL (≈ 1.63 µM) and the MIC ([8]; Cryptococcus gatti NR-43208, fluconazole MIC50 (50% growth reduction)) was 8 µg/mL (≈ 26.1 µM). It also gave an MIC ([8]; Cryptococcus gatti NR-43209, fluconazole MIC50 (50% growth reduction)) of 16 µg/mL (≈ 52.2 µM), an MIC ([8]; Cryptococcus gatti NR-43210, fluconazole MIC50 (50% growth reduction)) of 16 µg/mL (≈ 52.2 µM) and an MIC ([8]; Cryptococcus gatti NR-43213, fluconazole MIC50 (50% growth reduction)) of 8 µg/mL (≈ 26.1 µM). For the same molecule, the MIC ([9]; Aspergillus fumigatus NR-35303, fluconazole MIC50 (50% growth reduction)) was 128 µg/mL (≈ 418 µM), the MIC ([9]; Aspergillus fumigatus NR-35304, fluconazole MIC50 (50% growth reduction)) was > 128 µg/mL and the MIC ([9]; Aspergillus fumigatus NR-41312, fluconazole MIC50 (50% growth reduction)) was 128 µg/mL (≈ 418 µM).
